The values that follow come from patent US9790173B2, “Alpha-7 nicotinic acetylcholine receptor modulators and uses thereof-I” (MERCK SHARP & DOHME CORP., priority 2012, dated 2017).

The target of one series is T1, rat α7 nAChRs (Rattus norvegicus, UniProt Q05941).
T1 construct: expressed in transfected cells; host or cells: GH4C1 cells (rat pituitary line) stably expressing α7 nAChR
In words: Automated planar patch clamp (Patchliner) electrophysiology, α7 nAChR PAM activity. In kind it is cell-based. The arrangement: key to Type I or Type II: I: Type 1 predominately affects the peak current; Type II modulators affect the peak current and also delay the desensitization of the receptor. The note with it: for activation at 3 µM: GH4-C1, 3 μM compound in the presence of acetylcholine, GH4C1 cells expressing rat α7 nAChRs, peak current, read-out: Peak potentiation at 3 μM compound; for Type I or Type II: modulator type based on the electrophysiology trace. The method, then:
Tested compounds were prepared by serial dilutions of 10 mM stock solution in DMSO to concentrations of the compound 1000 times higher than its final concentration. The DMSO stock solutions were then diluted 1:100 in the recording buffer bringing DMSO concentration to 1%. These intermediate solutions were further diluted 10 times with buffer to obtain final concentrations and lower DMSO concentration to 0.1%. […]
Compounds of the invention may be evaluated by electrophysiology using a Patchliner® (Nanion Technologies GmbH, Germany), an automated planar patch-clamp platform of medium throughput was used as a first step in electrophysiological assessment of α7 nAChR positive allosteric modulators (PAMs).
Briefly, intracellular (KCl—50 mM, NaCl—10 mM, KF—60 mM, EGTA—20 mM, HEPES—10 mM, pH—7.2, 285 mOsmol) and extracellular (NaCl—140 mM, KCl—4 mM, CaCl2—2 mM, MgCl2—1 mM, HEPES—10 mM, D-Glucose—5 mM, pH—7.4, 298 mOsmol) solutions were automatically pipetted onto NPC-16 chip (medium resistance ˜2.5-2.6 MΩ). Suspension of GH4C1 cells expressing rat α7 nAChRs was introduced in 4 wells of a medium resistance chip and suction was applied to attract cells in the holes. The extracellular solution was subsequently exchanged to high calcium solution (NaCl—80 mM, KCl—3 mM, CaCl2—45 mM, HEPES—10 mM, pH—7.4, 298 mOsmol) followed by gigaohm seal formation and obtaining whole-cell configuration. The rest of protocol was carried out in the high-calcium recording solution. Holding potential was −70 mV throughout the protocol. A control response to 60 or 100 μM of ACh was obtained first. Next, a cell was pre-incubated with compound of interest at 3 μM for ˜30 s after which the compound was co-applied with acetylcholine.
Amplitude of the responses was measured in HEKA Patchmaster software (HEKA Elektronik, Germany) and percentage of potentiation calculated. Recording was repeated […] a minimum of two replicates had been obtained per compound.
Compounds shown in Table 1 were evaluated by automated planar patch clamp on the Patchliner® as described in Example P2.1. […] The compounds are designated either as Type I or Type II modulators based on the electrophysiology trace. Type 1 predominately affects the peak current. Type II modulators affect the peak current and also delay the desensitization of the receptor.

A further series has as its system mice. In words: T-maze Continuous Alternation Task (T-CAT), scopolamine-induced cognitive impairment. In kind it is in vivo. The following applies: mouse; dosed orally at 10 mg/kg; scopolamine-induced deficit. An excerpt:
The T-maze Continuous Alternation Task (T-CAT) measures spontaneous alternation, which is the innate tendency of mice to alternate free choices in a T-maze over a series of successive runs. This sequential procedure relies on working memory and is sensitive to various pharmacological manipulations affecting memory processes.
The T-maze apparatus is made of gray Plexiglas with a main stem (55 cm long×10 cm wide×25 cm high) and two arms (30 cm long×10 cm wide×25 cm high) positioned at 90 degree angle relative to the main stem. A start box (15 cm long×10 cm wide) is separated from the main stem by a sliding door. Sliding doors are also provided to close specific arms during the forced-choice alternation task.
The experimental protocol consists of one single session, which starts with 1 “forced-choice” trial, followed by 14 “free-choice” trials. In the first “forced-choice” trial, the animal is confined for 5 s in the start arm and then it is released while either the left or right goal arm is blocked by a sliding door. The animal will negotiate the maze, eventually enter the open goal arm, and return to the start position. Immediately after the return to the start position, the left or right goal door is opened and the animal is allowed to choose freely between the left and right goal arm (“free choice” trials). The animal is considered to have entered an arm when it places four paws in the arm. A session is terminated and the animal is removed from the maze as soon as 14 free-choice trials have been performed or 10 minutes have elapsed, whichever event occurs first. The percentage of alternation over the 14 free-choice trials is determined for each mouse and is used as an index of working memory performance. This percentage is defined as entry in a different arm of the T-maze over successive visits (i.e., left-right-left-right, etc).
Scopolamine administered 20 minutes prior the initiation of the T-maze session is used to induce disruption in the spontaneous alternation of mice. Test compounds are administered 60 minutes prior the start of the T-maze session in order to evaluate their ability to reverse the scopolamine effect.
The apparatus is cleaned between each animal using alcohol (70°). Urine and faeces are removed from the maze. During the trials, animal handling and the visibility of the operator are minimized as much as possible.
The compounds were dosed orally at 10 mg/kg.

SMILES strings stand for the structures.

T1 sequence (Q05941 23-502): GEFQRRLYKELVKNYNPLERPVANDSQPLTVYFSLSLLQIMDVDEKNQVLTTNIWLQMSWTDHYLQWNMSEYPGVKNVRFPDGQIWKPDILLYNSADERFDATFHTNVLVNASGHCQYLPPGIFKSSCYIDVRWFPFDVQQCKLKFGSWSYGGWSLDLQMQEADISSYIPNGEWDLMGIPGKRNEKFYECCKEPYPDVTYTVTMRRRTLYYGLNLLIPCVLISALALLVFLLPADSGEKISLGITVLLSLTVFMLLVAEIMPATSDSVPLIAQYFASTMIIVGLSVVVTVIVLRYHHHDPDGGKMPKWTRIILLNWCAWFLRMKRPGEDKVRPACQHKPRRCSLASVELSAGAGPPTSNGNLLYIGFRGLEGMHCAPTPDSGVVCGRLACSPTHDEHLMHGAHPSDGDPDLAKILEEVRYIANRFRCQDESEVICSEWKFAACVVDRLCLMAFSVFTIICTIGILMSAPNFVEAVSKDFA

For `NS(=O)(=O)c1ccc([C@H]2C[C@@H]2CNc2ccc(F)cc2)cc1` [Example 3, ±trans 4-(2-{[(4-fluorophenyl)amino]methyl}cyclopropyl)benzenesulfonamide], on rat α7 nAChRs, the activation at 3 µM was 969% and the “Type I or Type II” value is listed as “I”. The “T-maze % control at 10 mg/kg” value in the series on mice is listed as 62 % control.
As for `CC1(C)[C@H](CNc2ccc(F)cc2)[C@H]1c1ccc(S(N)(=O)=O)cc1` [Example 13, ±trans 4-[3-{[(4-fluorophenyl)amino]methyl}-2,2-dimethylcyclopropyl]benzenesulfonamide], the “Type I or Type II” value at rat α7 nAChRs is reported as “II”. Also, the “T-maze % control at 10 mg/kg” value with mice came to 80 % control.
Turning to `CC1(C)[C@@H](CNc2ccc(F)cc2C(F)(F)F)[C@@H]1c1ccc(S(N)(=O)=O)cc1` [Example 17, 4-[(1S,3S)-3-({[4-fluoro-2-(trifluoromethyl)phenyl]amino}methyl)-2,2-dimethylcyclopropyl]benzenesulfonamide], the “Type I or Type II” value on rat α7 nAChRs is “I”. Moreover, the “T-maze % control at 10 mg/kg” value in the series with mice is recorded as 100 % control.
For `COc1ccc(Cl)cc1NC[C@@H]1[C@@H](c2ccc(S(N)(=O)=O)cc2)C1(C)C` [Example 20, 4-[(1R,3R)-3-{[(5-chloro-2-methoxyphenyl)amino]methyl}-2,2-dimethylcyclopropyl]benzenesulfonamide] the same measures were “I” and 100 % control.
As for `COc1ccc(Cl)cc1NC[C@H]1[C@H](c2ccc(S(N)(=O)=O)cc2)C1(C)C` [Example 21, 4-[(1S,3S)-3-{[(5-chloro-2-methoxyphenyl)amino]methyl}-2,2-dimethylcyclopropyl]benzenesulfonamide], the “Type I or Type II” value on rat α7 nAChRs was “II”. Moreover, the “T-maze % control at 10 mg/kg” value in the series with mice is 100 % control.
`Cc1cc(F)c(F)cc1NC[C@@H]1[C@@H](c2ccc(S(N)(=O)=O)cc2)C1(C)C` [Example 30, 4-[(1R,3R)-3-{[(4,5-difluoro-2-methylphenyl)amino]methyl}-2,2-dimethylcyclopropyl]benzenesulfonamide] registered a melting point of 210 to 212 °C. Further, on rat α7 nAChRs, the activation at 3 µM stood at 419% and the “Type I or Type II” value is on record as “I”. In addition, the “T-maze % control at 10 mg/kg” value in the series with mice is given as 70 % control.
With `CC1(C)[C@@H](CNc2ccc(F)cc2OC(F)F)[C@@H]1c1ccc(S(N)(=O)=O)cc1` [Example 50, 4-[(1S,3S)-3-({[2-(difluoromethoxy)-4-fluorophenyl]amino}methyl)-2,2-dimethylcyclopropyl]benzenesulfonamide], on rat α7 nAChRs, the “Type I or Type II” value is on record as “II”. Further, the “T-maze % control at 10 mg/kg” value in the series on mice stood at 77 % control.
In the case of `CC1(C)[C@H](CNc2ccc(F)cc2OC(F)F)[C@H]1c1ccc(S(N)(=O)=O)cc1` [Example 51, 4-[(1R,3R)-3-({[2-(difluoromethoxy)-4-fluorophenyl]amino}methyl)-2,2-dimethylcyclopropyl]benzenesulfonamide], at rat α7 nAChRs, the activation at 3 µM was 171% and the “Type I or Type II” value is on record as “I”. Besides, in the series on mice, the “T-maze % control at 10 mg/kg” value is on record as 81 % control.
`COc1ccc(Cl)cc1NC[C@H]1C[C@@H]1Cc1ccc(S(N)(=O)=O)cc1` [Example 54, ±trans 4-{[-2-{[(5-chloro-2-methoxyphenyl)amino]methyl}cyclopropyl]methyl}benzenesulfonamide]: the melting point fell in the range of 126 to 128 °C. Further, on rat α7 nAChRs, the activation at 3 µM worked out at 574% and the “Type I or Type II” value is on record as “I”.
